Data taken from publication PMC5584254, “Identification of novel small molecule Beclin 1 mimetics activating autophagy” (Oncotarget, 2017).
Structures can show the parent of a compound that is named as a salt. Where two headings read alike, the source gives them in different places.

Experiments:
Bcl-xL-Beclin 1 complex [1] = target: T1, Bcl-xL-Beclin 1 complex (Homo sapiens, UniProt Q07817); assay: FP-based high-throughput screening, primary screen; type: binding; details: first screen; 40 μM compound, 2.5 μM Bcl-xL, 400 nM 20-mer
T1 construct: made in house
Description: Next, we optimized the FP competitive binding assay in a 384-well microplate format and carried out a small-scale HTS using a small library, which contains 6580 compounds from Prestwick, Microsource and our in-house CMLD library. Then, the FP assay was optimized and applied in screening the larger Chembridge library consisting of 43736 compounds. HTS cascades are shown in Supplementary Figure 1A–1B. […] All chemical structures can be found on the PubChem website (http://pubchem.ncbi.nlm.nih.gov/).
(§1) Then the plates were read by Envision (Perkin Elmer, Waltham, MA). […] The hits were selected from library stocks and reconfirmed in a concentration response FP assay (6 doses ranging from 5 μM to 160 μM or 8 doses ranging from 0.5 μM to 60 μM).

Bcl-xL-Beclin 1 complex [2] = target: T1, Bcl-xL-Beclin 1 complex; assay: Concentration response FP reconfirmation of HTS hits; type: binding; details: for inhibition at 5 µM: read-out: Dose-response (% Inhibition) 5 μM; for inhibition at 10 µM: read-out: Dose-response (% Inhibition) 10 μM; for inhibition at 20 µM: read-out: Dose-response (% Inhibition) 20 μM; for inhibition at 40 µM: read-out: Dose-response (% Inhibition) 40 μM; for inhibition at 80 µM: read-out: Dose-response (% Inhibition) 80 μM; for inhibition at 160 µM: read-out: Dose-response (% Inhibition) 160 μM
Experimental: as §1

T1 sequence (Q07817 whole entry, one chain of several): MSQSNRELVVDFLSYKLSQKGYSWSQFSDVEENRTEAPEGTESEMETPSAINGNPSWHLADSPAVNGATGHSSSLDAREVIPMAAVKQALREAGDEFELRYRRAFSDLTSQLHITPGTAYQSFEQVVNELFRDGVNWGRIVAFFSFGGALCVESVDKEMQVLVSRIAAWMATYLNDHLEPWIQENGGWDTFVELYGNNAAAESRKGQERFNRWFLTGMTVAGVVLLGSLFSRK

SMILES	Primary Screen mP (Bcl-xL-Beclin 1 complex [1])	inhibition at 40 µM (Bcl-xL-Beclin 1 complex [1])	inhibition at 5 µM (Bcl-xL-Beclin 1 complex [2]; 5 μM, hits of first screen)	inhibition at 10 µM (Bcl-xL-Beclin 1 complex [2]; 10 μM, hits of first screen)	inhibition at 20 µM (Bcl-xL-Beclin 1 complex [2]; 20 μM, hits of first screen)	inhibition at 40 µM (Bcl-xL-Beclin 1 complex [2]; 40 μM, hits of first screen)	inhibition at 80 µM (Bcl-xL-Beclin 1 complex [2]; 80 μM, hits of first screen)	inhibition at 160 µM (Bcl-xL-Beclin 1 complex [2]; 160 μM, hits of first screen)	other results
O=C1C=C2CC3(O)COc4cc(O)ccc4C3=C2C=C1O (centres unmarked) [Compound A01, BRAZILEIN]	96.0 mP	31%	8%	16.9%	23%	35.7%	57.8%	74.8%	–
CC(C)=CCCC1(C)C=Cc2c(O)c3c(c(CC=C(C)C)c2O1)OC12C(=CCCC1C(C)(C)O[C@@]2(C/C=C(\C)C(=O)O)C(=O)O)C3=O (some centres unmarked) [Compound A02, GARCINOLIC ACID]	124.0 mP	11.8%	2.5%	3.3%	3.6%	7.5%	18.1%	22%	–
O=C1c2cccc(O)c2C(=O)c2c(O)cccc21 [Compound A03, DANTHRON]	126.4 mP	9.62%	-1.2%	1.4%	4.8%	4.9%	8.7%	19.7%	–
CCCCCc1c2c(cc(O)c1C(=O)O)OC(=O)c1c(cc(OC)cc1C(=O)CCCC)O2 [Compound A04, LOBARIC ACID]	129.2 mP	7.13%	1.4%	2.3%	2%	3.2%	10.2%	13.7%	–
C[n+]1cc2c3c(ccc2c2ccc4cc5c(cc4c21)OCO5)OCO3 [Compound A05, SANGUINARINE SULFATE]	130.6 mP	6.61%	–	–	–	–	–	–	inhibition at 5 µM (Bcl-xL-Beclin 1 complex [2]): -1.4%; inhibition at 10 µM (Bcl-xL-Beclin 1 complex [2]): -0.2%; inhibition at 20 µM (Bcl-xL-Beclin 1 complex [2]): 2%; inhibition at 40 µM (Bcl-xL-Beclin 1 complex [2]): 8.4%; inhibition at 80 µM (Bcl-xL-Beclin 1 complex [2]): 20.6%; inhibition at 160 µM (Bcl-xL-Beclin 1 complex [2]): 31.1%
CCCCC(CC)CCC(CC(C)C)OS(=O)(=O)O (centres unmarked) [Compound A06, SODIUM TETRADECYL SULFATE]	121.5 mP	9.56%	-7.3%	-3.8%	-1%	2.6%	15.4%	24.4%	–
CN(C)c1ccc(C(=C2C=CC(=[N+](C)C)C=C2)c2ccc(N(C)C)cc2)cc1 [Compound A08, GENTIAN VIOLET]	123.0 mP	11.7%	1.9%	3.7%	5.8%	6.6%	21.2%	22.7%	–
COC(=O)CC[C@@H](C)[C@H]1CC[C@H]2[C@@H]3[C@H](O)C[C@@H]4C[C@H](O)CC[C@]4(C)[C@H]3C[C@H](O)[C@]12C [Compound A09, CHOLIC ACID, METHYL ESTER]	127.0 mP	9.59%	1.6%	1.5%	1.7%	4.2%	9.3%	13.2%	–
COC(=O)Nc1nc2ccc(Sc3ccccc3)cc2[nH]1 [Compound A10, FENBENDAZOLE]	128.0 mP	8.47%	-3.4%	2.3%	0.2%	-0.1%	-0.4%	8.8%	–
O=C1c2c(O)ccc(O)c2C(=O)c2c(NCCNCCO)ccc(NCCNCCO)c21 [Compound A11, MITOXANTRONE HYDROCHLORIDE]	99.8 mP	26.3%	-2.2%	4.3%	11.2%	19.5%	32.9%	32.2%	–
CC[n+]1c(-c2ccccc2)c2cc(N)ccc2c2ccc(N)cc21 [Compound A12, HOMIDIUM BROMIDE]	113.8 mP	15.3%	–	–	–	–	–	–	inhibition at 5 µM (Bcl-xL-Beclin 1 complex [2]): 3.5%; inhibition at 10 µM (Bcl-xL-Beclin 1 complex [2]): 5.5%; inhibition at 20 µM (Bcl-xL-Beclin 1 complex [2]): 7.2%; inhibition at 40 µM (Bcl-xL-Beclin 1 complex [2]): 12%; inhibition at 80 µM (Bcl-xL-Beclin 1 complex [2]): 26.1%; inhibition at 160 µM (Bcl-xL-Beclin 1 complex [2]): 39.2%
O=C(O)C1=CC(=C(c2ccc(O)c(C(=O)O)c2)c2ccc(O)c(C(=O)O)c2)C=CC1=O [Compound A14, AURIN TRICARBOXYLIC ACID]	129.7 mP	6.76%	0.7%	2%	3.8%	4.8%	8.1%	8.6%	–
CCCc1nc2c(C)cc(-c3nc4ccccc4n3C)cc2n1Cc1ccc(-c2ccccc2C(=O)O)cc1 [Compound A16]	125.4 mP	5.2%	-1.1%	-0.6%	-0.1%	1.6%	6.3%	11.1%	–
CCCCCCCCCc1ccc(OCCOCCOCCOCCOCCOCCOCCOCCOCCO)cc1 [Compound A17, NONOXYNOL-9]	127.2 mP	9.04%	–	–	–	–	–	–	inhibition at 5 µM (Bcl-xL-Beclin 1 complex [2]): -0.3%; inhibition at 10 µM (Bcl-xL-Beclin 1 complex [2]): 6.2%; inhibition at 20 µM (Bcl-xL-Beclin 1 complex [2]): 5.9%; inhibition at 40 µM (Bcl-xL-Beclin 1 complex [2]): 5.3%; inhibition at 80 µM (Bcl-xL-Beclin 1 complex [2]): 12.9%; inhibition at 160 µM (Bcl-xL-Beclin 1 complex [2]): 11.1%
CN1C[C@H](C(=O)N[C@]2(C)O[C@@]3(O)[C@@H]4CCCN4C(=O)[C@H](Cc4ccccc4)N3C2=O)C=C2c3cccc4[nH]cc(c34)C[C@H]21 [Compound A18, ERGOTAMINE TARTRATE]	122.3 mP	11%	–	–	–	–	–	–	inhibition at 5 µM (Bcl-xL-Beclin 1 complex [2]): -0.2%; inhibition at 10 µM (Bcl-xL-Beclin 1 complex [2]): 0.3%; inhibition at 20 µM (Bcl-xL-Beclin 1 complex [2]): 3.3%; inhibition at 40 µM (Bcl-xL-Beclin 1 complex [2]): 5.8%; inhibition at 80 µM (Bcl-xL-Beclin 1 complex [2]): 15.6%; inhibition at 160 µM (Bcl-xL-Beclin 1 complex [2]): 25.6%
CCCCCCCCCCCCCCCCC(C(=O)O)C(O)(CC(=O)O)C(=O)O (centres unmarked) [Compound A19, AGARIC ACID]	118.2 mP	–	–	–	–	–	–	–	Primary Screen % Inhibition (Bcl-xL-Beclin 1 complex [1]): 15.85%; Dose-response (% Inhibition) 5 μM (Bcl-xL-Beclin 1 complex [2]; 5 μM, hits of first screen): 3.8%; Dose-response (% Inhibition) 10 μM (Bcl-xL-Beclin 1 complex [2]; 10 μM, hits of first screen): 6.3%; Dose-response (% Inhibition) 20 μM (Bcl-xL-Beclin 1 complex [2]; 20 μM, hits of first screen): 9.1%; Dose-response (% Inhibition) 40 μM (Bcl-xL-Beclin 1 complex [2]; 40 μM, hits of first screen): 12.7%; Dose-response (% Inhibition) 80 μM (Bcl-xL-Beclin 1 complex [2]; 80 μM, hits of first screen): 20.3%; Dose-response (% Inhibition) 160 μM (Bcl-xL-Beclin 1 complex [2]; 160 μM, hits of first screen): 20.9%
CCc1oc2ccccc2c1C(=O)c1cc(Br)c(O)c(Br)c1 [Compound A20, BENZBROMARONE]	125.0 mP	9.05%	0.2%	0.6%	1%	1.1%	6.1%	11.3%	–
OCCN(CCO)c1nc(N2CCCCC2)c2nc(N(CCO)CCO)nc(N3CCCCC3)c2n1 [Compound A22, DIPYRIDAMOLE]	72.7 mP	47.8%	10.1%	21%	35.1%	46.7%	62.9%	72.4%	–
CC[C@@]1(O)C(=O)OCc2c1cc1n(c2=O)Cc2cc3c(CN(C)C)c(O)ccc3nc2-1 [Compound A23, TOPOTECAN HYDROCHLORIDE]	43.8 mP	68.7%	39.8%	54.8%	64.7%	70.9%	102%	103%	–
